The source of these data is patent US20240277658A1, “NLRP3 ACTIVATORS FOR USE IN THE TREATMENT OF INFECTIOUS DISEASES OR CANCER BY ACTIVATING NLRP3 INFLAMMASOME” (ALBERT-LUDWIGS-UNIVERSITÄT FREIBURG, priority 2020, published 2024).

In assay [1] the test system is NLRP3. Put plainly: Inflammasome stimulation (IL-1β, LDH release) in BMDCs from NLRP3 knockout or ASC knockout mice. The following applies: IL-1β and LDH release. It counts as cell-based, mouse. Here is the method: For canonical inflammasome activation BMDCs after 7-9 days of differentiation were harvested and counted with a Neubauer Chamber (Hecht Assistant) and the concentration was set to 1 Mio cells ml^−1. 100 μl cell suspension per well were seeded in 96-well plates. The cells were primed with 50 ng ml^−1 E. coli K12 ultra-pure LPS for 3 hours and subsequently treated with canonical inflammasome activators or experimental compounds for 3 hours if not indicated differently (incubation time FIG. 4D, 5, 7, 8, 11, 13-18: 3 h, FIG. 12: 4 h). Concentrations of the stimuli were as follows if not indicated differently: 5 μM nigericin, 100 μM imiquimod (also known as R837), 100 μM CL097, 100 μM R848, […] poly(dA:dT), 300 μg ml^−1 MSU. If an inhibitor was used before stimuli treatment, the inhibitor was added after 2.5 hours of priming and it was incubated for 30 minutes before inflammasome activation. Inhibitors were used as follows: 3 μM MCC950, 45 mM KCl, 30 μM ebselen (2-Phenyl-1,2-benzoselenazol-3-one), 5 μM cytochalasin D (see FIGS. 8, 11, 12 and 17).
All inflammasome stimulations were performed in three technical replicates for each condition. Lytic cell death was determined via LDH release (see FIGS. 8, 13-16 and 18), cytokines quantified in cell-free supernatants via ELISA (see FIGS. 4D, 7-9, 11-19) and cell lysates and supernatants analyzed via immunoblotting (see FIGS. 5A and 5B) as previously described in detail (Gross, Olaf, 2012 “Measuring the inflammasome”, Methods in molecular biology, Clifton, N.J., 844, pp. 199-222. Schneider, Katharina S.; Thomas, Christina J.; Groß, Olaf, 2013, “Inflammasome activation and inhibition in primary murine bone marrow-derived cells, and assays for IL-1α, IL-1β, and caspase-1”, Methods in molecular biology, Clifton, N.J., 1040, pp. 117-135).
(In general: Release of lactate dehydrogenase indicates damage to the cell membrane.)

Assay [2] has as its target T1, NLRP3 inflammasome (Mus musculus, UniProt Q8R4B8).
T1 construct: endogenous in cells; host or cells: primary mouse bone marrow-derived dendritic cells (BMDCs), LPS-primed
Briefly: IL-1β release from LPS-primed BMDCs (ELISA) as readout of NLRP3 inflammasome activation. It counts as cell-based. A digest of the protocol:
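NLRP3 inflammasome activation was read out as IL-1β released into the supernatant, measured by ELISA. Murine BMDCs were primed with LPS (50 ng ml^−1, 3 hours), then incubated with compounds for 3 hours, with each condition run in three technical replicates. Nigericin at 5 μM acted as the positive control activator, and IL-1β release was also expressed as a percentage of that control.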
(In general: An ELISA detects its analyte on a solid surface through an enzyme-linked reagent.)

Assay [3] deals with BMDCs. Put plainly: LDH release (lytic cell death, pyroptosis) from LPS-primed BMDCs. It counts as cell-based, mouse. The following applies: for Average (% positive control): LDH release; for cytotoxicity at 25 µM / cytotoxicity at 50 µM / cytotoxicity at 75 µM / cytotoxicity at 5 µM / cytotoxicity at 100 µM / cytotoxicity at 18.75 µM / cytotoxicity at 37.5 µM: Mus musculus, BMDC. The gist of the method: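 Mouse BMDCs (7-9 days differentiated, GM-CSF) primed with 50 ng ml^−1 E. coli K12 LPS for 3 hours, then exposed 3 hours to compounds (50 μM unless indicated) or activators (nigericin 5 μM; R837, CL097 100 μM). Lytic death measured as LDH release by colorimetric assay, triplicate wells.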

“And” between values parts separate entries of the source, which are not always exact repeats. Identical values can stand only once. Like-named read-outs stand apart in the source and are kept apart here.

T1 sequence (Q8R4B8 whole entry): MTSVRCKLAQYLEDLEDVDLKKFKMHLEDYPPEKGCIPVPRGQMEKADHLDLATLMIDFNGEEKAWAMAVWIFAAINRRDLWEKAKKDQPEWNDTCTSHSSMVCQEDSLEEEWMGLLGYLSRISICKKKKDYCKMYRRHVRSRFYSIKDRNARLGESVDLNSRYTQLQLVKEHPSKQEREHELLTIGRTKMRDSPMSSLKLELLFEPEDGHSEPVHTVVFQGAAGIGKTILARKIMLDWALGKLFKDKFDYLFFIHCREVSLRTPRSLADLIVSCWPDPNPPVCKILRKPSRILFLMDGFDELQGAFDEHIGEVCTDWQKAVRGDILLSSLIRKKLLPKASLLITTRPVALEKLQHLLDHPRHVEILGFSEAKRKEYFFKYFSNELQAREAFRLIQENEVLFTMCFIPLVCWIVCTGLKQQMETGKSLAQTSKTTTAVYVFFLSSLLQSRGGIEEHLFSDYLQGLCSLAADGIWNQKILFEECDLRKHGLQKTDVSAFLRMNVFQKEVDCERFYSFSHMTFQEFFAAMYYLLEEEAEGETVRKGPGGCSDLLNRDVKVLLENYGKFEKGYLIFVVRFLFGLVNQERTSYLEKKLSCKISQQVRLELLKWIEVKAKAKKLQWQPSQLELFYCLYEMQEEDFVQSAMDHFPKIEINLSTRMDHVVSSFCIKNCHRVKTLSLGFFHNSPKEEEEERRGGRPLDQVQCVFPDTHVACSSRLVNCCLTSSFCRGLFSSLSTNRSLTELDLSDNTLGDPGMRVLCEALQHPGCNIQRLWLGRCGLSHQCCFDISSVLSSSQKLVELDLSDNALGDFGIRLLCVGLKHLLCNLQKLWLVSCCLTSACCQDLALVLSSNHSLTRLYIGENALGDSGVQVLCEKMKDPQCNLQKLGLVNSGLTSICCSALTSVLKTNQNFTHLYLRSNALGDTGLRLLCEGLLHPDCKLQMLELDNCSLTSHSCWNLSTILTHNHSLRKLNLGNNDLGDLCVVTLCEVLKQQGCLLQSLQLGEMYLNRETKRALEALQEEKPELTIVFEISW

As for `S=C(Nc1ccccc1)Nc1ccc2ncccc2c1` [AH4, 1-phenyl-3-(quinolin-6-yl) thiourea], the “characteristics of inflammasome activation in cells isolated from NLRP3 knockout mice” value (shortened to “characteristics”) in assay [1] was “do not occur”. Also, the “Average IL-1β” value in assay [2] (25 μM, AH series table) was determined as 2.151 ng/mL; in assay [2] (50 μM, AH series table), 10.000 ng/mL; in assay [2] (75 μM, AH series table), 9.996 ng/mL. Further, the “IL-1β” value in assay [2] (25 μM, individual replicate values, AH series table) is 2.340 ng/mL and 2.250 ng/mL and 1.863 ng/mL; in assay [2] (50 μM, individual replicate values, AH series table) it was 10.000 ng/mL; in assay [2] (75 μM, individual replicate values, AH series table), 9.988 ng/ml and 10.000 ng/ml (2×). The “Average (% positive control)” value is 21.507 % positive control in assay [2] (IL-1β, 25 μM, positive control EN22 10 μM); 100.000 % positive control in assay [2] (IL-1β, 50 μM, positive control EN22 10 μM); 99.960 % positive control in assay [2] (IL-1β, 75 μM, positive control EN22 10 μM); 24.359 % positive control in assay [3] (25 μM, positive control EN22 10 μM); 73.142 % positive control in assay [3] (50 μM, positive control EN22 10 μM); 89.204 % positive control in assay [3] (75 μM, positive control EN22 10 μM). The cytotoxicity at 25 µM in assay [3] (25 μM, AH series table, read-out: Average LDH release (% of max.)) was 18.7%; in assay [3] (25 μM, individual replicate values, AH series table, read-out: LDH release (% of max.)), 20%. For the same compound, the cytotoxicity at 50 µM in assay [3] (50 μM, AH series table, read-out: Average LDH release (% of max.)) was 56.2%; in assay [3] (50 μM, individual replicate values, AH series table, read-out: LDH release (% of max.)), 57.6%. Also, the cytotoxicity at 75 µM was 67.9% in assay [3] (75 μM, individual replicate values, read-out: LDH release (% of max.)) and 68.5% in assay [3] (75 μM, read-out: Average LDH release (% of max.)).
For `O=C(Nc1cc(C(F)F)ns1)Nc1cc(F)ncc1CO` [BRM/BRG1 ATP Inhibitor-1, reference compound], the “characteristics” value in assay [1] was “do not occur”. The “Average IL-1β” value in assay [2] (section 1.3, 5 μM) came to 3.664 ng/mL; in assay [2] (section 1.3, 50 μM), 5.980 ng/mL; in assay [2] (section 1.3, 100 μM) it was 5.023 ng/mL. In addition, the “Average (% positive control)” value amounted to 116.295 % positive control in assay [2] (section 1.3, IL-1β release, 5 μM, positive control nigericin 5 μM); 189.7925 % positive control in assay [2] (section 1.3, IL-1β release, 50 μM, positive control nigericin 5 μM); 159.415 % positive control in assay [2] (section 1.3, IL-1β release, 100 μM, positive control nigericin 5 μM); 30.921 % positive control in assay [3] (section 1.3, 5 μM, positive control nigericin 5 μM); 65.959 % positive control in assay [3] (section 1.3, 50 μM, positive control nigericin 5 μM); 46.154 % positive control in assay [3] (section 1.3, 100 μM, positive control nigericin 5 μM). Also, the “IL-1β” value is 3.556 ng/mL and 3.899 ng/mL and 3.537 ng/mL in assay [2] (section 1.3, single replicates, 5 μM); 4.561 ng/mL and 6.642 ng/mL and 6.737 ng/mL in assay [2] (section 1.3, single replicates, 50 μM); 7.150 ng/mL and 3.831 ng/mL and 4.087 ng/mL in assay [2] (section 1.3, single replicates, 100 μM). The cytotoxicity at 5 µM stood at 16.6% in assay [3] (section 1.3, 5 μM, read-out: Average LDH release (% of max.)) and 14.1% in assay [3] (section 1.3, single replicates, 5 μM, read-out: LDH release (% of max.)). For the same compound, the cytotoxicity at 50 µM in assay [3] (section 1.3, 50 μM, read-out: Average LDH release (% of max.)) stood at 35.4%; in assay [3] (section 1.3, single replicates, 50 μM, read-out: LDH release (% of max.)), 38.5%. Moreover, the cytotoxicity at 100 µM was found to be 24.8% in assay [3] (section 1.3, 100 μM, read-out: Average LDH release (% of max.)) and 27% in assay [3] (section 1.3, single replicates, 100 μM, read-out: LDH release (% of max.)).
With `COCCNC(=O)c1cc(-c2ccn(C3CCCC3)n2)n2ccccc12` [EN54], the “characteristics” value in assay [1] is recorded as “do not occur”.
`O=C(Nc1cccc(Cl)c1)Nc1ccc([N+](=O)[O-])cc1Cl` [TCMDC-143175, 3-(2-chloro-4-nitrophen-yl)-1-(3-chlorophenyl)-urea]: the entries for the “Average IL-1β” value in assay [2] (18.75 μM), in assay [2] (37.5 μM) and in assay [2] (75 μM) were 0.105 ng/mL, 0.291 ng/mL and 0.417 ng/mL, respectively. Moreover, the “IL-1β” value was 0.102 ng/mL and 0.104 ng/mL and 0.110 ng/mL in assay [2] (18.75 μM, individual replicate values); 0.309 ng/mL and 0.275 ng/mL and 0.290 ng/mL in assay [2] (37.5 μM, individual replicate values); 0.423 ng/mL and 0.381 ng/mL and 0.446 ng/mL in assay [2] (75 μM, individual replicate values). Besides, the “Average (% positive control)” value in assay [2] (IL-1β, 18.75 μM, positive control EN22 18.75 μM) turned out to be 1.666 % positive control; in assay [2] (IL-1β, 37.5 μM, positive control EN22 18.75 μM), 4.609 % positive control; in assay [2] (IL-1β, 75 μM, positive control EN22 18.75 μM), 6.592 % positive control; in assay [3] (section 1.4, 18.75 μM, positive control EN22 18.75 μM) it was 49.754 % positive control; in assay [3] (section 1.4, 37.5 μM, positive control EN22 18.75 μM), 104.647 % positive control; in assay [3] (section 1.4, 75 μM, positive control EN22 18.75 μM), 128.113 % positive control. In addition, the cytotoxicity at 18.75 µM was found to be 35.5% in assay [3] (section 1.4, 18.75 μM, read-out: Average LDH release (% of max.)) and 35.3% in assay [3] (section 1.4, single replicates, 18.75 μM, read-out: LDH release (% of max.)). The cytotoxicity at 37.5 µM was 74.7% in assay [3] (section 1.4, 37.5 μM, read-out: Average LDH release (% of max.)) and 72.8% in assay [3] (section 1.4, single replicates, 37.5 μM, read-out: LDH release (% of max.)). For the same compound, the cytotoxicity at 75 µM came out at 91.4% in assay [3] (section 1.4, 75 μM, read-out: Average LDH release (% of max.)) and 91.5% in assay [3] (section 1.4, single replicates, 75 μM, read-out: LDH release (% of max.)).
